Data as given in PubChem BioAssay AID330 (DTP/NCI, 2004).
Several values for one entry are separate records, joined by “and”; a condition that tells them apart may be missing. Equal entries are not always repeated. Inconclusive results and toxic doses are left out. Rule for the calls: active = survival T/C of 150% or more; inactive = T/C below 125% in these data. Square brackets hold non-standard residues; d marks the D form. Peptide text beside a SMILES is read from it. ξ: configuration not given here. ξH = NC(Cc1c[nH]cn1)C(=O)O

System: P388 leukemia ip, CD2F1 mice, survival T/C
Test: NCI In Vivo Anticancer Drug Screen. Data for tumor model P388 Leukemia (intraperitoneal) in CD2F1 (CDF1) mice
Conditions: endpoint: median survival time, higher = longer survival
Procedure, shortened: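 Mice carrying the transplanted tumor received test compound or vehicle. Survival was recorded in each group, and the value is the treated-group measurement divided by that of the vehicle-treated control group.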

[1] = dose: 0.78 mg/kg/injection, schedule: Q01DX009 (ip), vehicle: water
[2] = dose: 1.56 mg/kg/injection, schedule: Q01DX009 (ip), vehicle: water
[3] = dose: 100.0 mg/kg/injection, schedule: Q04DX003 (ip), vehicle: saline
[4] = dose: 400.0 mg/kg/injection, schedule: Q04DX003 (ip), vehicle: saline
[5] = dose: 50.0 mg/kg/injection, schedule: Q01DX005 (ip), vehicle: saline with Tween-80
[6] = dose: 100.0 mg/kg/injection, schedule: Q01DX005 (ip), vehicle: saline with Tween-80
[7] = dose: 200.0 mg/kg/injection, schedule: Q01DX005 (ip), vehicle: saline with Tween-80
[8] = dose: 50.0 mg/kg/injection, schedule: Q01DX009 (ip), vehicle: saline with Tween-80
[9] = dose: 100.0 mg/kg/injection, schedule: Q01DX009 (ip), vehicle: saline with Tween-80
[10] = dose: 200.0 mg/kg/injection, schedule: Q04DX003 (ip), vehicle: saline
[11] = dose: 50.0 mg/kg/injection, schedule: Q04DX003 (ip), vehicle: saline with Tween-80
[12] = dose: 100.0 mg/kg/injection, schedule: Q04DX003 (ip), vehicle: saline with Tween-80
[13] = dose: 200.0 mg/kg/injection, schedule: Q04DX003 (ip), vehicle: saline with Tween-80
[14] = dose: 50.0 mg/kg/injection, schedule: Q01DX009 (ip), vehicle: saline
[15] = dose: 100.0 mg/kg/injection, schedule: Q01DX009 (ip), vehicle: saline
[16] = dose: 200.0 mg/kg/injection, schedule: Q01DX009 (ip), vehicle: saline

Measured: T/C

O=C(CBr)C(=O)OCc1ccccc1
inactive: [1] 100 % of control | [2] 99 % of control | dose: 3.13 mg/kg/injection, schedule: Q01DX009 (ip), vehicle: water 94 % of control | dose: 6.25 mg/kg/injection, schedule: Q01DX009 (ip), vehicle: water 102 % of control

O=C1C2=C(Nc3ccccc3N2)OC1c1ccc(Cl)cc1 (stereo unspecified)
inactive: dose: 7.5 mg/kg/injection, schedule: Q01DX005 (ip), vehicle: Klucel (hydroxypropylcellulose) (HPC) 103 % of control | dose: 15.0 mg/kg/injection, schedule: Q01DX005 (ip), vehicle: Klucel (hydroxypropylcellulose) (HPC) 101 % of control | dose: 30.0 mg/kg/injection, schedule: Q01DX005 (ip), vehicle: Klucel (hydroxypropylcellulose) (HPC) 101 % of control

COc1ccc2c(Br)c(NC(C)=O)ccc2c1Br
inactive: dose: 25.0 mg/kg/injection, schedule: Q04DX003 (ip), vehicle: saline 100 % of control | dose: 50.0 mg/kg/injection, schedule: Q04DX003 (ip), vehicle: saline 96 % of control | [3] 98 % of control and 96 % of control | [4] 95 % of control

COc1ccc(CCN2C=CC(C#N)C(C(C)=O)=C2)cc1OC (stereo unspecified)
inactive: dose: 50.0 mg/kg/injection, schedule: Q01DX005 (ip), vehicle: Klucel (hydroxypropylcellulose) (HPC) 99 % of control | dose: 100.0 mg/kg/injection, schedule: Q01DX005 (ip), vehicle: Klucel (hydroxypropylcellulose) (HPC) 94 % of control | dose: 200.0 mg/kg/injection, schedule: Q01DX005 (ip), vehicle: Klucel (hydroxypropylcellulose) (HPC) 90 % of control

C1=CC2C(O1)OC2c1ccc2ccccc2c1 (stereo unspecified)
inactive: dose: 7.5 mg/kg/injection, schedule: Q01DX005 (ip), vehicle: Klucel + Tween-80 114 % of control | dose: 15.0 mg/kg/injection, schedule: Q01DX005 (ip), vehicle: Klucel + Tween-80 100 % of control and 97 % of control | dose: 30.0 mg/kg/injection, schedule: Q01DX005 (ip), vehicle: Klucel + Tween-80 89 % of control | dose: 60.0 mg/kg/injection, schedule: Q01DX005 (ip), vehicle: Klucel + Tween-80 89 % of control and 97 % of control

Brc1cccc2[s+]snc12
inactive: [5] 101 % of control | [6] 105 % of control | [7] 97 % of control

NC(=O)N/N=C1/CCC(OCc2ccccc2)CC1CC(=O)O (stereo unspecified)
inactive: [5] 102 % of control | [6] 105 % of control | [7] 96 % of control

CCC(C)N=C1NS(=O)(=O)c2ccccc21 (stereo unspecified)
inactive: [5] 105 % of control | [6] 105 % of control | [7] 102 % of control

NCC(=O)NCC(=O)NC(Cc1cnc[nH]1)C(=O)O (stereo not drawn) (H-Gly-Gly-[ξH]-OH)
inactive: dose: 50.0 mg/kg/injection, schedule: Q01DX005 (ip), vehicle: saline 103 % of control | dose: 100.0 mg/kg/injection, schedule: Q01DX005 (ip), vehicle: saline 96 % of control | dose: 200.0 mg/kg/injection, schedule: Q01DX005 (ip), vehicle: saline 104 % of control

CCOc1c(N=Nc2cccc([N+](=O)[O-])c2)c(C)nn1C(=S)SC
inactive: dose: 60.0 mg/kg/injection, schedule: Q01DX005 (ip), vehicle: Klucel (hydroxypropylcellulose) (HPC) 93 % of control | dose: 120.0 mg/kg/injection, schedule: Q01DX005 (ip), vehicle: Klucel (hydroxypropylcellulose) (HPC) 90 % of control

COc1cccc(/C=N/NC(=O)c2c(-c3ccccc3)noc2C)c1O
inactive: [8] 99 % of control | [9] 100 % of control | dose: 200.0 mg/kg/injection, schedule: Q01DX009 (ip), vehicle: saline with Tween-80 110 % of control

O=C(O)c1c[nH]c2cc(OCCOc3ccc4ccccc4c3)ccc2c1=O
inactive: [3] 99 % of control | [10] 88 % of control | [4] 94 % of control

CC(C)N(C(=S)/N=C1/SCS(=O)(=O)N1Cc1ccccc1)C(C)C
inactive: [11] 97 % of control | [12] 95 % of control | [13] 98 % of control

CCO/C([O-])=C(\C=N\[n+]1ccccc1C)c1ccccc1
inactive: [14] 109 % of control | [15] 110 % of control | [16] 109 % of control

Cc1cc(NCCCCCCCCNc2cc(C)nc3cc(N)ccc23)c2ccc(N)cc2n1
inactive: [1] 119 % of control | [2] 123 % of control

CCNC(=O)N(CC(=O)NC)c1ncc([N+](=O)[O-])s1
inactive: dose: 100.0 mg/kg/injection, schedule: Q04DX002 (ip), vehicle: Klucel (hydroxypropylcellulose) (HPC) 103 % of control | dose: 200.0 mg/kg/injection, schedule: Q04DX002 (ip), vehicle: Klucel (hydroxypropylcellulose) (HPC) 101 % of control | dose: 400.0 mg/kg/injection, schedule: Q04DX002 (ip), vehicle: Klucel (hydroxypropylcellulose) (HPC) 108 % of control

C=CCCCCCCCCC(=O)NN1CCOCC1
inactive: [12] 95 % of control | [13] 100 % of control | dose: 400.0 mg/kg/injection, schedule: Q04DX003 (ip), vehicle: saline with Tween-80 86 % of control

NC(=S)N/N=C\C12CC3CC(CC(C3)C1)C2
inactive: [8] 96 % of control | [9] 108 % of control

CCOC(=O)/C=C1\CONC(c2ccc(OC)cc2)=N1
inactive: dose: 60.0 mg/kg/injection, schedule: Q01DX005 (ip), vehicle: saline with Tween-80 106 % of control | dose: 120.0 mg/kg/injection, schedule: Q01DX005 (ip), vehicle: saline with Tween-80 97 % of control | dose: 240.0 mg/kg/injection, schedule: Q01DX005 (ip), vehicle: saline with Tween-80 105 % of control

COc1ccc2nc(N(C)C)cc(N(C)C)c2c1
inactive: dose: 12.5 mg/kg/injection, schedule: Q01DX009 (ip), vehicle: Klucel (hydroxypropylcellulose) (HPC) 94 % of control | dose: 25.0 mg/kg/injection, schedule: Q01DX009 (ip), vehicle: Klucel (hydroxypropylcellulose) (HPC) 94 % of control | dose: 50.0 mg/kg/injection, schedule: Q01DX009 (ip), vehicle: Klucel (hydroxypropylcellulose) (HPC) 87 % of control

COc1cc2c(cc1-c1coc3cc(O)ccc3c1=O)OCO2
inactive: dose: 1.1 mg/kg/injection, schedule: Q01DX005 (ip), vehicle: Klucel (hydroxypropylcellulose) (HPC) 90 % of control | dose: 2.13 mg/kg/injection, schedule: Q01DX005 (ip), vehicle: Klucel (hydroxypropylcellulose) (HPC) 86 % of control | dose: 4.25 mg/kg/injection, schedule: Q01DX005 (ip), vehicle: Klucel (hydroxypropylcellulose) (HPC) 92 % of control and 96 % of control | dose: 8.5 mg/kg/injection, schedule: Q01DX005 (ip), vehicle: Klucel (hydroxypropylcellulose) (HPC) 88 % of control and 94 % of control | dose: 68.0 mg/kg/injection, schedule: Q01DX005 (ip), vehicle: Klucel (hydroxypropylcellulose) (HPC) 86 % of control

O=C(NCCCCCCNC(=O)OCOC(=O)NCCCCCCNC(=O)Nc1ccc(SCCO)cc1)Nc1ccc(SCCO)cc1
inactive: [3] 102 % of control | [10] 102 % of control | [4] 99 % of control

CC[n+]1c(/C=C/c2ccc(N(CCC(=O)O)CCC(=O)O)cc2C)sc2ccccc21
inactive: dose: 12.5 mg/kg/injection, schedule: Q04DX003 (ip), vehicle: saline with Tween-80 99 % of control | dose: 25.0 mg/kg/injection, schedule: Q04DX003 (ip), vehicle: saline with Tween-80 95 % of control | [11] 100 % of control

CC(C)(C)C(=O)Oc1ccc[nH]c1=O
inactive: dose: 25.0 mg/kg/injection, schedule: Q01DX009 (ip), vehicle: saline 100 % of control and 110 % of control | [14] 106 % of control and 116 % of control | [15] 100 % of control and 116 % of control | [16] 121 % of control and 94 % of control | dose: 400.0 mg/kg/injection, schedule: Q01DX009 (ip), vehicle: saline 106 % of control and 109 % of control
